{"source": "ChEMBL document CHEMBL6153028", "about": "“Understanding the synergistic sensitization of natural products and antibiotics: An effective strategy to combat MRSA” (2025)", "format_in_all_cases": "functional", "key": {"Staphylococcus aureus [1]": {"system": "Staphylococcus aureus", "experiment": "Synergistic antibacterial activity against Staphylococcus aureus assessed as fractional inhibitory concentration index incubated for 24 hrs in presence of ampicillin by checkerboard assay"}, "Staphylococcus aureus [2]": {"system": "Staphylococcus aureus", "experiment": "Synergistic antibacterial activity against methicillin resistant Staphylococcus aureus assessed as fractional inhibitory concentration index in presence of oxacillin incubated for 24 hrs by checkerboard assay"}, "Staphylococcus aureus [3]": {"system": "Staphylococcus aureus", "experiment": "Synergistic antibacterial activity against methicillin resistant Staphylococcus aureus assessed as fractional inhibitory concentration index in presence of kanamycin incubated for 24 hrs by checkerboard assay"}, "Staphylococcus aureus [4]": {"system": "Staphylococcus aureus", "experiment": "Synergistic antimicrobial activity against methicillin resistant Staphylococcus aureus 43300 assessed as fractional inhibitory concentration index incubated for 24 hrs in presence of Gentamicin by checkerboard assay"}, "Staphylococcus aureus [5]": {"system": "Staphylococcus aureus", "experiment": "Synergistic antimicrobial activity against methicillin resistant Staphylococcus aureus assessed as fractional inhibitory concentration index incubated for 24 hrs in presence of Oxacillin by checkerboard assay"}, "Staphylococcus aureus [6]": {"system": "Staphylococcus aureus", "experiment": "Synergistic antibacterial activity against methicillin resistant Staphylococcus aureus assessed as fractional inhibitory concentration index in presence of ampicillin"}, "Staphylococcus aureus [7]": {"system": "Staphylococcus aureus", "experiment": "Synergistic antibacterial activity against methicillin-resistant Staphylococcus aureus assessed as fractional inhibitory concentration index incubated for 24 hrs in presence of vancomycin by checkerboard assay"}, "Staphylococcus aureus [8]": {"system": "Staphylococcus aureus", "experiment": "Synergistic antimicrobial activity against methicillin-resistant Staphylococcus aureus CCARM 3089 assessed as fractional inhibitory concentration index in presence of oxacillin incubated for 24 hrs by checkerboard assay"}, "Staphylococcus aureus [9]": {"system": "Staphylococcus aureus", "experiment": "Synergistic antimicrobial activity against methicillin resistant Staphylococcus aureus assessed as fractional inhibitory concentration index incubated for 24 hrs in presence of amikacin by checkerboard assay"}, "Staphylococcus aureus [10]": {"system": "Staphylococcus aureus", "experiment": "Synergistic antimicrobial activity against methicillin resistant Staphylococcus aureus assessed as fractional inhibitory concentration index incubated for 24 hrs in presence of Fosfomycin by checkerboard assay"}, "Staphylococcus aureus [11]": {"system": "Staphylococcus aureus", "experiment": "Synergistic antimicrobial activity against methicillin resistant Staphylococcus aureus assessed as fractional inhibitory concentration index incubated for 24 hrs in presence of Norfloxacin by checkerboard assay"}, "Staphylococcus aureus [12]": {"system": "Staphylococcus aureus", "experiment": "Synergistic antimicrobial activity against methicillin-resistant Staphylococcus aureus assessed as fractional inhibitory concentration index in presence of gentamicin by checkerboard assay"}, "Staphylococcus aureus [13]": {"system": "Staphylococcus aureus", "experiment": "Synergistic antimicrobial activity against methicillin resistant Staphylococcus aureus 43300 assessed as fractional inhibitory concentration index incubated for 24 hrs in presence of Vancomycin by checkerboard assay"}, "Staphylococcus aureus [14]": {"system": "Staphylococcus aureus", "experiment": "Synergistic antimicrobial activity against methicillin resistant Staphylococcus aureus 43300 assessed as fractional inhibitory concentration index incubated for 24 hrs in presence of Penicillin by checkerboard assay"}, "Staphylococcus aureus [15]": {"system": "Staphylococcus aureus", "experiment": "Synergistic antimicrobial activity against methicillin-resistant Staphylococcus aureus assessed as fractional inhibitory concentration index in presence of vancomycin by checkerboard assay"}, "Staphylococcus aureus [16]": {"system": "Staphylococcus aureus", "experiment": "Synergistic antimicrobial activity against methicillin resistant Staphylococcus aureus 43300 assessed as fractional inhibitory concentration index incubated for 24 hrs in presence of imipenem by checkerboard assay"}, "Staphylococcus aureus [17]": {"system": "Staphylococcus aureus", "experiment": "Synergistic antimicrobial activity against methicillin resistant Staphylococcus aureus 43300 assessed as fractional inhibitory concentration index incubated for 24 hrs in presence of Cefuroxime by checkerboard assay"}, "Staphylococcus aureus [18]": {"system": "Staphylococcus aureus", "experiment": "Synergistic antimicrobial activity against methicillin resistant Staphylococcus aureus 43300 assessed as fractional inhibitory concentration index incubated for 24 hrs in presence of cefotaxime by checkerboard assay"}}}
{"compound": "COc1ccc2c(c1OC)C(CC(C)=O)N(C)c1c-2ccc2cc3c(cc12)OCO3", "note": "(configuration not stated)", "values": [{"measurement": "fractional inhibitory concentration index (FICI)", "setting": "Staphylococcus aureus [1]", "result": 0.5}]}
{"compound": "CC(C)=CCc1c(O)ccc(-c2oc3cc(O)cc(O)c3c(=O)c2CC=C(C)C)c1O", "values": [{"measurement": "fractional inhibitory concentration index (FICI)", "setting": "Staphylococcus aureus [2]", "result": 0.375}, {"measurement": "fractional inhibitory concentration index (FICI)", "setting": "Staphylococcus aureus [3]", "result": 0.5}]}
{"compound": "O=C(/C=C/C=C/c1ccc2c(c1)OCO2)N1CCCCC1", "note": "[PIPERINE]", "values": [{"measurement": "fractional inhibitory concentration index (FICI)", "setting": "Staphylococcus aureus [4]", "result": 0.5}]}
{"compound": "CC(C)=CCc1c(-c2ccc(O)cc2O)oc2c(CC=C(C)C)c(O)cc(O)c2c1=O", "note": "[KUWANON C]", "values": [{"measurement": "fractional inhibitory concentration index (FICI)", "setting": "Staphylococcus aureus [2]", "result": 0.5}, {"measurement": "fractional inhibitory concentration index (FICI)", "setting": "Staphylococcus aureus [3]", "result": 0.375}]}
{"compound": "CC1(C)CC[C@]2(C(=O)O)CC[C@]3(C)C(=CC[C@@H]4[C@@]5(C)CC[C@H](O)C(C)(C)[C@@H]5CC[C@]43C)[C@@H]2C1", "note": "[OLEANOLIC_ACID]", "values": [{"measurement": "fractional inhibitory concentration index (FICI)", "setting": "Staphylococcus aureus [5]", "result": "<0.5"}, {"measurement": "fractional inhibitory concentration index (FICI)", "setting": "Staphylococcus aureus [6]", "result": "<0.5"}]}
{"compound": "C[C@H]1[C@H](OC(=O)CCC(=O)O)O[C@@H]2O[C@@]3(C)CC[C@H]4[C@H](C)CC[C@@H]1[C@@]24OO3", "note": "[ARTESUNATE]", "values": [{"measurement": "fractional inhibitory concentration index (FICI)", "setting": "Staphylococcus aureus [5]", "result": "<0.5"}]}
{"compound": "CC(C)=CCC/C(C)=C/Cc1cc(C2CC(=O)c3c(O)cc(O)cc3O2)c(O)cc1O", "note": "(configuration not stated) [KUWANON E]", "values": [{"measurement": "fractional inhibitory concentration index (FICI)", "setting": "Staphylococcus aureus [3]", "result": 0.5}]}
{"compound": "CC1=C(C)[C@H]2C3=CC[C@@H]4[C@@]5(C)CC[C@H](O)C(C)(C)[C@@H]5CC[C@@]4(C)[C@]3(C)CC[C@@]2(C(=O)O)CC1", "values": [{"measurement": "fractional inhibitory concentration index (FICI)", "setting": "Staphylococcus aureus [5]", "result": 0.38}, {"measurement": "fractional inhibitory concentration index (FICI)", "setting": "Staphylococcus aureus [1]", "result": 0.5}]}
{"compound": "C[C@H]1COC2=C1C(=O)C(=O)c1c2ccc2c1CCCC2(C)C", "note": "[CRYPTOTANSHINONE]", "values": [{"measurement": "fractional inhibitory concentration index (FICI)", "setting": "Staphylococcus aureus [7]", "result": 0.37}, {"measurement": "fractional inhibitory concentration index (FICI)", "setting": "Staphylococcus aureus [5]", "result": 0.312}]}
{"compound": "O=C(O[C@@H]1O[C@@H]2COC(=O)c3cc(O)c(O)c(O)c3-c3c(cc(O)c(O)c3O)C(=O)O[C@H]2[C@H](OC(=O)c2cc(O)c(O)c(O)c2)[C@H]1OC(=O)c1cc(O)c(O)c(O)c1)c1cc(O)c(O)c(O)c1", "note": "[EUGENIIN]", "values": [{"measurement": "fractional inhibitory concentration index (FICI)", "setting": "Staphylococcus aureus [8]", "result": 0.395}]}
{"compound": "C=CCc1ccc(O)c(-c2ccc(O)c(CC=C)c2)c1", "note": "[HONOKIOL]", "values": [{"measurement": "fractional inhibitory concentration index (FICI)", "setting": "Staphylococcus aureus [9]", "result": "<0.5"}, {"measurement": "fractional inhibitory concentration index (FICI)", "setting": "Staphylococcus aureus [10]", "result": "<0.5"}]}
{"compound": "O=C(OCC1O[C@H](OC(=O)c2cc(O)c(O)c(O)c2)[C@@H](O)[C@H](OC(=O)c2cc(O)c(O)c(O)c2)[C@H]1O)c1cc(O)c(O)c(O)c1", "note": "(some centres not stated)", "values": [{"measurement": "fractional inhibitory concentration index (FICI)", "setting": "Staphylococcus aureus [5]", "result": "<0.5"}, {"measurement": "fractional inhibitory concentration index (FICI)", "setting": "Staphylococcus aureus [11]", "result": 0.31}]}
{"compound": "O=C/C=C/c1ccccc1", "note": "[CINNAMALDEHYDE]", "values": [{"measurement": "fractional inhibitory concentration index (FICI)", "setting": "Staphylococcus aureus [7]", "result": 0.25}, {"measurement": "fractional inhibitory concentration index (FICI)", "setting": "Staphylococcus aureus [5]", "result": 0.25}, {"measurement": "fractional inhibitory concentration index (FICI)", "setting": "Staphylococcus aureus [9]", "result": 0.19}, {"measurement": "fractional inhibitory concentration index (FICI)", "setting": "Staphylococcus aureus [12]", "result": 0.37}]}
{"compound": "CNC1CC[C@@]2(C)C(=CC[C@H]3C4CCC5[C@H](C)NC[C@@]54CC[C@@H]32)C1", "note": "(some centres not stated)", "values": [{"measurement": "fractional inhibitory concentration index (FICI)", "setting": "Staphylococcus aureus [13]", "result": 0.116}, {"measurement": "FIC", "setting": "Staphylococcus aureus [14]", "result": 0.116}]}
{"compound": "C[C@H]1C2CCC3[C@@H]4CC=C5CC(N(C)C)CC[C@]5(C)[C@H]4CC[C@@]32CN1C=O", "note": "(some centres not stated)", "values": [{"measurement": "fractional inhibitory concentration index (FICI)", "setting": "Staphylococcus aureus [13]", "result": 0.502}, {"measurement": "fractional inhibitory concentration index (FICI)", "setting": "Staphylococcus aureus [14]", "result": 0.116}]}
{"compound": "C=C(C)[C@@H]1CC[C@]2(C(=O)O)CC[C@]3(C)[C@H](CC[C@@H]4[C@@]5(C)CC[C@H](O)C(C)(C)[C@@H]5CC[C@]43C)[C@@H]12", "note": "[BETULINIC ACID]", "values": [{"measurement": "fractional inhibitory concentration index (FICI)", "setting": "Staphylococcus aureus [15]", "result": 0.5}]}
{"compound": "C=CCc1ccc(O)c(-c2cc(CC=C)ccc2O)c1", "note": "[MAGNOLOL]", "values": [{"measurement": "fractional inhibitory concentration index (FICI)", "setting": "Staphylococcus aureus [10]", "result": "<0.5"}]}
{"compound": "O=C1C=CC(=O)c2ccccc21", "note": "[NAPHTHOQUINONE]", "values": [{"measurement": "fractional inhibitory concentration index (FICI)", "setting": "Staphylococcus aureus [16]", "result": 0.5}, {"measurement": "fractional inhibitory concentration index (FICI)", "setting": "Staphylococcus aureus [17]", "result": 0.06}, {"measurement": "fractional inhibitory concentration index (FICI)", "setting": "Staphylococcus aureus [18]", "result": 0.062}]}
